According to publication PMC7968374 (Bioorganic & medicinal chemistry, 2021):

Target: Hsp27c (Homo sapiens, UniProt P04792)
Assay: STD-NMR binding experiment
Details: Figure S2

Hsp27c, sequence (P04792 79-176): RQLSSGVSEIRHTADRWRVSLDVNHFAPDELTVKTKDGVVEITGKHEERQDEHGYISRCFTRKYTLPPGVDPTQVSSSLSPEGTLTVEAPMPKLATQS

binding to Hsp27c in STD-NMR: bound
SMILES: Nc1cccnc1Oc1ccc(F)cc1F [Compound 4, 2-(2,4-difluorophenoxy)pyridin-3-amine]
